Source: EPA's CvTdb concentration-time database

How the values were obtained:
[1] = tested on: Rat; assay: concentration in plasma after dosing; conditions: 3 h; dosed: Wyeth-14643; 1.0 mg/kg; oral; Male; Sprague-Dawley
[2] = tested on: Rat; assay: concentration in plasma after dosing; conditions: 1 h; dosed: Wyeth-14643; 5.0 mg/kg; oral; Male; Sprague-Dawley
[3] = tested on: Rat; assay: concentration in plasma after dosing; conditions: dosed: Wyeth-14643, 1.0 mg/kg, oral, Male, Sprague-Dawley
[4] = tested on: Rat; assay: concentration in liver after dosing; conditions: 1 h; dosed: Bis 2-Chloroethoxy Methane; 20 mg/kg; iv; Male; F344
[5] = tested on: Rat; assay: concentration in heart after dosing; conditions: 1 h; dosed: Bis 2-Chloroethoxy Methane; 20 mg/kg; iv; Male; F344
[6] = tested on: Rat; assay: concentration in heart after dosing; conditions: 1 h; dosed: Bis 2-Chloroethoxy Methane; 20 mg/kg; iv; Male; F344; remark: listed apart in the source
[7] = tested on: Rat; assay: concentration in liver after dosing; conditions: 4 h; dosed: Bis 2-Chloroethoxy Methane; 20 mg/kg; iv; Male; F344
[8] = tested on: Rat; assay: concentration in heart after dosing; conditions: 2 h; dosed: Bis 2-Chloroethoxy Methane; 20 mg/kg; iv; Female; F344
[9] = tested on: Rat; assay: concentration in thymus after dosing; conditions: 1 h; dosed: Bis 2-Chloroethoxy Methane; 20 mg/kg; iv; Male; F344
[10] = tested on: Rat; assay: concentration in plasma after dosing; conditions: 5 h; dosed: Bis 2-Chloroethoxy Methane; 20 mg/kg; iv; Female; F344
[11] = tested on: Rat; assay: concentration in plasma after dosing; conditions: 4 h; dosed: Bis 2-Chloroethoxy Methane; 20 mg/kg; iv; Male; F344
[12] = tested on: Rat; assay: concentration in thymus after dosing; conditions: 6 h; dosed: Bis 2-Chloroethoxy Methane; 20 mg/kg; iv; Female; F344
[13] = tested on: Rat; assay: concentration in brain after dosing; conditions: 0.5 h; dosed: Fluorotelomer alcohol 8+2; 80 mg/kg; oral; Female; Harlan Sprague Dawley
[14] = tested on: Rat; assay: concentration in brain after dosing; conditions: 12 h; dosed: Fluorotelomer alcohol 8+2; 80 mg/kg; oral; Female; Harlan Sprague Dawley
[15] = tested on: Rat; assay: concentration in brain after dosing; conditions: 1 h; dosed: Fluorotelomer alcohol 8+2; 80 mg/kg; oral; Female; Harlan Sprague Dawley
[16] = tested on: Rat; assay: concentration in plasma after dosing; conditions: dosed: Fluorotelomer alcohol 8+2, 12 mg/kg, iv, Male, F344
[17] = tested on: Rat; assay: concentration in plasma after dosing; conditions: 5 min; dosed: Fluorotelomer alcohol 8+2; 12 mg/kg; iv; Male; F344
[18] = tested on: Rat; assay: concentration in plasma after dosing; conditions: 4 h; dosed: Di-n-butyl phthalate; 20 mg/kg; iv; Male; Sprague-Dawley
[19] = tested on: Rat; assay: concentration in plasma after dosing; conditions: 24 h; dosed: Di-n-butyl phthalate; 100 mg/kg; oral; Male; Sprague-Dawley
[20] = tested on: Rat; assay: concentration in plasma after dosing; conditions: 2 h; dosed: Di-n-butyl phthalate; 100 mg/kg; oral; Male; Sprague-Dawley
[21] = tested on: Rat; assay: concentration in plasma after dosing; conditions: 15 h; dosed: Di-n-butyl phthalate; 100 mg/kg; oral; Male; Sprague-Dawley
[22] = tested on: Rat; assay: concentration in brain after dosing; conditions: 24 h; dosed: Perfluorodecanoic acid; 10 mg/kg; oral; Female; Harlan Sprague Dawley
[23] = tested on: Rat; assay: concentration in plasma after dosing; conditions: dosed: Perfluorodecanoic acid, 2 mg/kg, oral, Male, Harlan Sprague Dawley
[24] = tested on: Rat; assay: concentration in plasma after dosing; conditions: dosed: Perfluorodecanoic acid, 2 mg/kg, oral, Male, Harlan Sprague Dawley; remark: listed apart in the source
[25] = tested on: Rat; assay: concentration in kidney after dosing; conditions: 3360 h; dosed: Perfluorodecanoic acid; 10 mg/kg; oral; Female; Harlan Sprague Dawley
[26] = tested on: Rat; assay: concentration in kidney after dosing; conditions: 1848 h; dosed: Perfluorodecanoic acid; 10 mg/kg; oral; Female; Harlan Sprague Dawley
[27] = tested on: Rat; assay: concentration in plasma after dosing; conditions: 9 h; dosed: Primidone; 80 mg/kg; oral; Male; F344
[28] = tested on: Rat; assay: concentration in plasma after dosing; conditions: 1.5 h; dosed: Primidone; 30 mg/kg; oral; Female; F344
[29] = tested on: Rat; assay: concentration in plasma after dosing; conditions: 12 h; dosed: Primidone; 130 mg/kg; oral; Female; F344
[30] = tested on: Rat; assay: concentration in heart after dosing; conditions: 5.333 h; dosed: Thiodiglycolic Acid; 20 mg/kg; iv; Female; Harlan Sprague Dawley
[31] = tested on: Rat; assay: concentration in liver after dosing; conditions: 2 h; dosed: Thiodiglycolic Acid; 20 mg/kg; iv; Female; Harlan Sprague Dawley
[32] = tested on: Rat; assay: concentration in liver after dosing; conditions: 40 min; dosed: Thiodiglycolic Acid; 20 mg/kg; iv; Female; Harlan Sprague Dawley
[33] = tested on: Rat; assay: concentration in liver after dosing; conditions: 10 min; dosed: Thiodiglycolic Acid; 20 mg/kg; iv; Male; F344
[34] = tested on: Rat; assay: concentration in liver after dosing; conditions: 1 h; dosed: Thiodiglycolic Acid; 20 mg/kg; iv; Male; Harlan Sprague Dawley
[35] = tested on: Rat; assay: concentration in liver after dosing; conditions: 20 min; dosed: Thiodiglycolic Acid; 20 mg/kg; iv; Female; Harlan Sprague Dawley
[36] = tested on: Rat; assay: concentration in thymus after dosing; conditions: 4 h; dosed: Thiodiglycolic Acid; 20 mg/kg; iv; Male; Harlan Sprague Dawley
[37] = tested on: Rat; assay: concentration in thymus after dosing; conditions: 5.333 h; dosed: Thiodiglycolic Acid; 20 mg/kg; iv; Female; Harlan Sprague Dawley
[38] = tested on: Rat; assay: concentration in thymus after dosing; conditions: 40 min; dosed: Thiodiglycolic Acid; 20 mg/kg; iv; Female; Harlan Sprague Dawley
[39] = tested on: Rat; assay: concentration in thymus after dosing; conditions: 8 h; dosed: Thiodiglycolic Acid; 20 mg/kg; iv; Female; Harlan Sprague Dawley
[40] = tested on: Rat; assay: concentration in plasma after dosing; conditions: 0.25 h; dosed: dichloroacetic acid; 10 mg/kg; oral; Male; Harlan Sprague Dawley

SMILES: Cc1cccc(Nc2cc(Cl)nc(SCC(=O)O)n2)c1C
- concentration in plasma [1]: 180 ng/mL
- concentration in plasma [2]: 5440 ng/mL
- concentration in plasma ([3]; 2 h): 709 ng/mL
- concentration in plasma ([3]; 8 h): 189 ng/mL

SMILES: ClCCOCOCCCl [Bis 2-Chloroethoxy Methane]
- concentration in liver [4]: 2070 ng/g
- concentration in heart [5]: 1380 ng/g
- concentration in heart [6]: 2450 ng/g
- concentration in liver [7]: 86.1 ng/g
- concentration in heart [8]: 247 ng/g
- concentration in thymus [9]: 5370 ng/g
- concentration in plasma [10]: 17.2 ng/mL
- concentration in plasma [11]: 118 ng/mL
- concentration in thymus [12]: 61.4 ng/g

SMILES: OCCC(F)(F)C(F)(F)C(F)(F)C(F)(F)C(F)(F)C(F)(F)C(F)(F)C(F)(F)F [Fluorotelomer alcohol 8+2]
- concentration in brain [13]: 4390 ng/g
- concentration in brain [14]: 164 ng/g
- concentration in brain [15]: 3370 ng/g
- concentration in plasma ([16]; 1 h): 619 ng/mL
- concentration in plasma ([16]; 6 h): 38.5 ng/mL
- concentration in plasma [17]: 3800 ng/mL

SMILES: CCCCOC(=O)c1ccccc1C(=O)O [Mono-n-butyl phthalate]
- concentration in plasma [18]: 726 ng/mL
- concentration in plasma [19]: 2770 ng/mL
- concentration in plasma [20]: 1290 ng/mL
- concentration in plasma [21]: 1250 ng/mL

SMILES: O=C(O)C(F)(F)C(F)(F)C(F)(F)C(F)(F)C(F)(F)C(F)(F)C(F)(F)C(F)(F)C(F)(F)F [Perfluorodecanoic acid]
- concentration in brain [22]: 1820 ng/g
- concentration in plasma ([23]; 0.5 h): 1690 ng/mL
- concentration in plasma ([23]; 24 h): 6460 ng/mL
- concentration in plasma ([23]; 1848 h): 968 ng/mL
- concentration in plasma ([24]; 1 h): 4920 ng/mL
- concentration in plasma ([24]; 192 h): 5100 ng/mL
- concentration in plasma ([24]; 2520 h): 882 ng/mL
- concentration in kidney [25]: 2580 ng/g
- concentration in kidney [26]: 10100 ng/g

SMILES: CCC1(c2ccccc2)C(=O)NC(=O)NC1=O [Phenobarbital]
- concentration in plasma [27]: 6800 ng/mL
- concentration in plasma [28]: 380 ng/mL
- concentration in plasma [29]: 8210 ng/mL

SMILES: O=C(O)CSCC(=O)O [Thiodiglycolic Acid]
- concentration in heart [30]: 642 ng/g
- concentration in liver [31]: 39600 ng/g
- concentration in liver [32]: 10000 ng/g
- concentration in liver [33]: 160000 ng/g
- concentration in liver [34]: 162000 ng/g
- concentration in liver [35]: 47100 ng/g
- concentration in thymus [36]: 1490 ng/g
- concentration in thymus [37]: 1080 ng/g
- concentration in thymus [38]: 3380 ng/g
- concentration in thymus [39]: 544 ng/g

SMILES: O=C(O)C(Cl)Cl [dichloroacetic acid]
- concentration in plasma [40]: 720 ng/mL
